Test results reported in ChEMBL document CHEMBL1201862, “PubChem BioAssay data set” (2004).
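Each compound was tested at five concentrations against cells in 96-well plates for 48 hours. Abbreviation: GI50, concentration required for 50% inhibition of growth.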 Calls of active or inactive are those of the source. Rule as the data show it: active = GI50 up to about 1.1 µM and inactive = higher.

Assays:
Assay in all cases: NCI-60 cell line screen, 48 h
786-0 = test system: 786-0
A549 = test system: A549
LOX IMVI = test system: LOX IMVI
MDA-MB-435 = test system: MDA-MB-435
MDA-N = test system: MDA-N
Malme-3M = test system: Malme-3M
NCI-H522 = test system: NCI-H522
NCI/ADR-RES = test system: NCI/ADR-RES
PC-3 = test system: PC-3
RPMI-8226 = test system: RPMI-8226
SF-268 = test system: SF-268
SF-539 = test system: SF-539
SK-OV-3 = test system: SK-OV-3
UACC-257 = test system: UACC-257
DU-145 = test system: DU-145
EKVX = test system: EKVX
HL-60 = test system: HL-60
RXF 393 = test system: RXF 393
UO-31 = test system: UO-31
NCI-H226 = test system: NCI-H226

Measured: GI50

CN(C)CCOC1(Cc2ccc(Cl)cc2Cl)CCC(C(C)(C)C)CC1 (stereo unspecified)
inactive: 786-0 1.83 µM | A549 3.18 µM | LOX IMVI 1.44 µM | MDA-MB-435 1.54 µM | MDA-N 1.81 µM | Malme-3M 2.25 µM | NCI-H522 1.79 µM | NCI/ADR-RES 2.3 µM | PC-3 1.48 µM | RPMI-8226 2.16 µM | SF-268 5.01 µM | SF-539 4.36 µM | SK-OV-3 2.25 µM | UACC-257 2.04 µM

C[C@@H]1C(=O)O[C@H]1[C@H](O)CO
inactive: 786-0 > 100 µM | A549 > 100 µM | DU-145 > 100 µM | EKVX > 100 µM | HL-60 > 100 µM | LOX IMVI > 100 µM | MDA-MB-435 > 100 µM | MDA-N > 100 µM | NCI/ADR-RES > 100 µM | PC-3 > 100 µM | RPMI-8226 94.2 µM | RXF 393 > 100 µM | SK-OV-3 > 100 µM | UACC-257 > 100 µM | UO-31 > 10 µM

CCOC(CI)O[C@@H]1C=C[C@H](OC(C)=O)C1 (stereo partly specified)
inactive: 786-0 > 100 µM | A549 > 100 µM | DU-145 > 100 µM | EKVX > 100 µM | MDA-MB-435 > 100 µM | MDA-N > 100 µM | Malme-3M > 100 µM | NCI-H226 > 100 µM | NCI/ADR-RES > 100 µM | PC-3 > 100 µM | RPMI-8226 > 100 µM | RXF 393 > 100 µM | SF-268 > 100 µM | SF-539 > 100 µM | SK-OV-3 > 100 µM | UACC-257 > 100 µM | UO-31 > 100 µM

O=C1C(=Cc2ccccc2O)N=C(c2ccccc2)N1n1c(-c2ccccc2)nc2ccccc2c1=O
inactive: 786-0 42.1 µM | A549 33.6 µM | DU-145 35.5 µM | EKVX 30.6 µM | HL-60 15.2 µM | LOX IMVI 41.7 µM | MDA-MB-435 36.8 µM | MDA-N 32.4 µM | Malme-3M 45.7 µM | NCI-H226 31.6 µM | NCI-H522 33.1 µM | PC-3 34 µM | RPMI-8226 38.6 µM | SF-268 21.3 µM | SF-539 21.8 µM | SK-OV-3 48.3 µM | UACC-257 29.9 µM | UO-31 27.5 µM

CC1=C(C)C(=O)C2=C(OCCO2)C1=O
inactive: 786-0 22.5 µM | A549 21.5 µM | DU-145 18.8 µM | EKVX 15.1 µM | HL-60 2.96 µM | LOX IMVI 12.1 µM | MDA-MB-435 2.82 µM | MDA-N 10.3 µM | Malme-3M 15.9 µM | NCI-H226 24.3 µM | NCI/ADR-RES 3.54 µM | PC-3 18.2 µM | RPMI-8226 2.34 µM | SF-268 27.1 µM | SF-539 19.9 µM | SK-OV-3 17.9 µM | UACC-257 13.8 µM | UO-31 10.1 µM

CCOC(=O)Cn1c(C)nc2nn(Cc3ccccc3)cc2c1=O
inactive: 786-0 > 100 µM | A549 > 100 µM | DU-145 > 100 µM | EKVX > 100 µM | MDA-MB-435 > 100 µM | MDA-N > 100 µM | Malme-3M > 100 µM | NCI-H226 > 100 µM | NCI/ADR-RES > 100 µM | PC-3 > 100 µM | RXF 393 > 100 µM | SF-268 > 100 µM | SF-539 > 100 µM | SK-OV-3 > 100 µM | UO-31 > 100 µM

O=C1CC2c3ccccc3CCC2c2ccccc21 (stereo unspecified)
inactive: 786-0 31.3 µM | A549 27.5 µM | DU-145 57.8 µM | EKVX 2.58 µM | HL-60 21.6 µM | LOX IMVI 15.8 µM | MDA-MB-435 19.3 µM | MDA-N 6.64 µM | NCI-H226 12.1 µM | NCI-H522 23.3 µM | PC-3 26.2 µM | RPMI-8226 43.5 µM | SF-268 27.5 µM | SF-539 16.3 µM | SK-OV-3 51.2 µM | UACC-257 26.2 µM | UO-31 15.2 µM

CC1=NC(=Cc2ccc(Cl)cc2)C(=O)N1n1c(-c2ccccc2)nc2ccccc2c1=O
inactive: 786-0 40.6 µM | A549 39.8 µM | DU-145 38.1 µM | EKVX 27.2 µM | HL-60 26.3 µM | LOX IMVI 38.5 µM | MDA-MB-435 43.4 µM | MDA-N 35.1 µM | Malme-3M 33.2 µM | NCI-H226 > 100 µM | NCI-H522 6.92 µM | PC-3 24.3 µM | RPMI-8226 34.1 µM | SF-268 51.9 µM | SF-539 35.1 µM | SK-OV-3 38.5 µM | UACC-257 25 µM | UO-31 37.2 µM

CC(C)(C)N/C(N)=N/C#N
inactive: 786-0 > 100 µM | A549 > 100 µM | DU-145 > 100 µM | EKVX > 100 µM | HL-60 > 100 µM | LOX IMVI > 100 µM | MDA-MB-435 > 100 µM | MDA-N > 100 µM | Malme-3M > 100 µM | NCI/ADR-RES > 100 µM | PC-3 > 100 µM | RPMI-8226 > 100 µM | RXF 393 > 100 µM | SF-268 > 100 µM | SF-539 > 100 µM | SK-OV-3 > 100 µM | UACC-257 > 100 µM | UO-31 > 100 µM

COc1ccc(C(=O)c2sc(N(C)C)nc2-c2ccccc2)cc1
inactive: 786-0 34.4 µM | A549 36 µM | DU-145 49 µM | HL-60 17.1 µM | LOX IMVI 37.4 µM | MDA-MB-435 6.4 µM | MDA-N 18.1 µM | Malme-3M 37.4 µM | NCI-H226 67.5 µM | NCI/ADR-RES 19.8 µM | PC-3 28.9 µM | RPMI-8226 33 µM | RXF 393 54.3 µM | SF-268 40.1 µM | SF-539 58.7 µM | SK-OV-3 22.5 µM | UACC-257 26.1 µM | UO-31 32.1 µM

CSc1ncc2c(C#N)c3sc4ccccc4n3c(=O)c2n1
inactive: 786-0 41.8 µM | A549 78.3 µM | DU-145 > 100 µM | EKVX > 100 µM | HL-60 > 100 µM | LOX IMVI > 100 µM | MDA-MB-435 > 100 µM | MDA-N > 100 µM | Malme-3M > 100 µM | NCI-H226 26.1 µM | NCI/ADR-RES 38.8 µM | PC-3 > 100 µM | RPMI-8226 > 100 µM | RXF 393 > 100 µM | SF-268 16.1 µM | SF-539 40.1 µM | SK-OV-3 80.7 µM | UACC-257 > 100 µM | UO-31 > 100 µM

O=C(Cn1c(C(=O)/C=C/c2ccc(Cl)c(Cl)c2)nc2ccccc21)c1ccccc1
inactive: 786-0 18.8 µM | A549 21.7 µM | DU-145 32.9 µM | EKVX 14.4 µM | HL-60 15.6 µM | LOX IMVI 17.9 µM | MDA-MB-435 19.1 µM | MDA-N 19.9 µM | Malme-3M 35.2 µM | NCI-H226 31.7 µM | NCI/ADR-RES 21.8 µM | PC-3 29.3 µM | RPMI-8226 23.8 µM | RXF 393 24 µM | SF-268 45.4 µM | SF-539 21.9 µM | SK-OV-3 28.6 µM | UACC-257 27.7 µM | UO-31 24.8 µM
